Test results reported in patent publication US12553055B2, “Auxin-inducible degron system kit and use thereof” (Inter-University Research Institute Corporation Research …, priority 2019, dated 2026).

Assays:
[1] = target: T1, OsTIR1(F74G)/mAID-EGFP-NLS expressing cell (Oryza sativa subsp. japonica, UniProt Q7XVM8, F74G); assay: FACS analysis of mAID-EGFP-NLS reporter degradation in OsTIR1(F74G) expressing HCT116 cell; assay type: cell-based, human
T1 construct: expressed in transfected cells; host or cells: HCT116 (human colon adenocarcinoma-derived cell)
Procedure: (§1) An HCT116 cell (human colon adenocarcinoma-derived cell) having DNA in which an OsTIR1(WT) or OsTIR1(F74G) and an mAID-EGFP (green fluorescent protein)-NLS (nuclear localization signal) were encoded through a P2A sequence inserted onto a chromosome by a transposon (hereinafter, referred to as “OsTIR1(WT)/mAID-EGFP-NLS expressing cell” or “OsTIR1(F74G)/mAID-EGFP-NLS expressing cell”) was prepared (refer to FIG. 1).
(§2) The auxin analog (concentration in culture medium: 0, 200 μM) was added to the OsTIR1(F74G)/mAID-EGFP-NLS expressing cell and cultured for 24 hours. In addition, as a control, a cell containing an auxin added to the OsTIR1(WT)/mAID-EGFP-NLS expressing cell was also prepared.
(§3) After 24 hours from the addition of the auxin analog, the cells were collected, and FACS analysis was performed.
(§4) Furthermore, the same experiment was performed by adding 100 μM of an auxin to the OsTIR1(WT)/mAID-EGFP-NLS expressing cell, adding 1 μM of 5-Ph-IAA to the OsTIR1(F74G)/mAID-EGFP-NLS expressing cell, collecting the cells after four hours, and performing FACS analysis.
(§5) In order to compare OsTIR1(WT) and OsTIR1(F74G) in more detail, the degradation of the mAID-EGFP-NLS reporter was induced using IAA (auxin) and 5-Ph-IAA in different doses, respectively (refer to FIG. 10(A)). […] DC 50 values (concentrations for 50% degradation) were 300±30 nM and 0.45±0.01 nM in OsTIR1(WT) and OsTIR1(F74G), respectively, and it was confirmed that the system in which 5-Ph-IAA was used functioned at an approximately 670-times lower concentration compared with conventional auxin-inducible degron systems.
In order to investigate dynamics over time attributed to the removal of a target protein, samples after a lapse of time were taken, and the expression levels of the reporter were observed (refer to FIG. 10(B)). […]

[2] = target: T2, OsTIR1(F74A)/mAID-EGFP-NLS expressing cell (Oryza sativa subsp. japonica, UniProt Q7XVM8, F74A); assay: FACS analysis of mAID-EGFP-NLS reporter degradation in OsTIR1(F74A) expressing cell clones; assay type: cell-based, human
T2 construct: expressed in transfected cells
Procedure: Furthermore, the same experiment was also performed on three clones using an OsTIR1(F74A)/mAID-EGFP-NLS expressing cell.

HCT116 cell = assay: Influence of 5-Ph-IAA treatment on HCT116 cell (cell cycle, colony formation); assay type: cell-based, human; details: 1 μM
Procedure: As shown in FIG. 9(A) in which the influence of the treatment with 1 μM of 5-Ph-IAA on the HCT116 cell was investigated, no influence was shown on the cell cycle. As shown in FIG. 9(B), no change in the colony formation efficiency was shown. It was confirmed that 5-Ph-IAA is an effective ligand and has no toxicity at 1 μM.

[3] = target: T3, OsTIR1(F74G)/DHC1-mAID-Clover expressing cell (Oryza sativa subsp. japonica, UniProt Q7XVM8, F74G); assay: Degradation induction test of DHC1 (microscopy, Western blotting); assay type: cell-based, human
T3 construct: expressed in transfected cells; host or cells: HCT116; OsTIR1(F74G) gene at the AAVS1 locus; endogenous DHC1 tagged by CRISPR/Cas9 homologous recombination
Procedure: A plasmid vector having mAID, clover and a neomycin resistance gene and having a homologous sequence with respect to a DHC1 gene so as to sandwich mAID and the neomycin resistance gene was introduced into the OsTIR1(WT)-expressing HCT116 cell or OsTIR1(F74G)-expressing HCT116 cell using a CRISPR/Cas9 system, and homologous recombination with the endogenous DHC1 gene was performed. Next, after selection by G418, the formed colony was dyed using crystal violet. “DHC1” is the abbreviation for dynein heavy chain 1.
A degradation induction test of DHC1 was performed using the HCT116 cell expressing OsTIR1(F74G) on which homologous recombination had been performed in the above-described section 2 (hereinafter, referred to as “OsTIR1(F74G)/DHC1-mAID-Clover expressing cell”).
The compound indicated by the formula (I-2) (also referred to as 5-Ph-IAA) was added to the OsTIR1(F74G)/DHC1-mAID-Clover expressing cell, and the appearance of the cell after 24 hours was observed (FIG. 4(A)).
Furthermore, the degradation of DHC1 was confirmed by Western blotting (FIG. 4(B)).
A CRISPR plasmid for adding a degron tag and two donors each having a neomycin-resistant marker or a hygromycin-resistant marker were transfected into a parent cell line constitutively expressing OsTIR1(WT or F74G) (refer to FIG. 14). In an OsTIR1(F74G) expressing cell, a colony was formed in the presence of G418 and hygromycin, and tags were added to DHC1 genes at both alleles (refer to FIG. 15(A)). In a cell expressing OsTIR1(WT), no colony was formed. […] This coincides with the fact that DHC1 is essential for the formation of a spindle that is formed during mitosis.

mAID-EGFP-CENPH = target: T4, mAID-EGFP-CENPH (Oryza sativa subsp. japonica, UniProt Q7XVM8, F74G); assay: Western blotting of mAID-EGFP-CENPH degradation in HeLa cell (transposon vector + CRISPR-KO); assay type: cell-based, human; details: anti-CENPH antibody
T4 construct: P2A linker (self-cleaving; remnant); expressed in transfected cells; host or cells: HeLa; transposon vector plus CRISPR-KO vector
Excerpt: (§6) In this degradation system, (1) a transposon vector in which an OsTIR1(F74G) gene and an mAID-target gene are connected by a P2A linker gene and (2) a CRISPR-KO vector for knocking out an endogenous target gene containing gRNA and a Cas9 gene are contained.
(§7) In this degradation system, the OsTIR1(F74G) gene and the mAID-target gene in a genome are integrated by the transposon vector, and an endogenous target gene is knocked out by the CRISPR-KO vector.
(§8) The transposon vector in which an OsTIR1(F74G) gene and an mAID-EGFP-CENPH or mAID-EGFP-POLD1 target gene were connected by a P2A linker gene was constructed, and this vector was introduced into a HeLa cell together with the CRISPR-KO vector targeting an endogenous CENPH or POLD1 gene. 5-Ph-IAA was added to such a cell, and the degradation of the target protein was confirmed by Western blotting (FIG. 6).

mAID-EGFP-POLD1 = target: T5, mAID-EGFP-POLD1 (Oryza sativa subsp. japonica, UniProt Q7XVM8, F74G); assay: Western blotting of mAID-EGFP-POLD1 degradation in HeLa cell (transposon vector + CRISPR-KO); assay type: cell-based, human; details: anti-POLD1 antibody, clones #1 to #3
T5 construct: P2A linker (self-cleaving; remnant); expressed in transfected cells; host or cells: HeLa; transposon vector plus CRISPR-KO vector
Excerpt: as §6, §7, §8

[4] = test system: yeast strains with mAID tag on MCM10, SLD3 or CDC45; assay: Growth of mAID-tagged yeast strains expressing OsTIR1(WT, F74G or F74A) on plates; assay type: cell-based
Excerpt: In order to confirm that the AID2 system functions even in yeasts, OsTIR1(WT, F74G or F74A) was introduced into a URA3 gene locus under the control of a GAL1-10 promoter (refer to FIG. 12(A)). After that, an mAID tag was attached to a gene that encodes MCM10, SLD3 or CDC45, which is an essential replication initiator.

[5] = target: T6, RAD21-mAID-Clover (RAD21-mAC) cell expressing OsTIR1(F74G) (Oryza sativa subsp. japonica, UniProt Q7XVM8, F74G); assay: RAD21-mAC degradation in HCT116 cell expressing OsTIR1(F74G); assay type: cell-based, human
T6 construct: expressed in transfected cells; host or cells: human HCT116 constantly expressing OsTIR1(F74G); RAD21 tagged by genome editing
Procedure: (§9) A human HCT116 cell constantly expressing OsTIR1(F74G) was used as a material, an RAD21-mAID-Clover (RAD21-mAC) cell was generated by genome editing, and an effect of the addition of 5-Ph-IAA was confirmed. As shown in FIGS. 13(A) and (B), the expression level of RAD21-mAC was […] in a cell expressing OsTIR1(F74G) than in a cell expressing OsTIR1(WT) at 0 minutes before addition, and basal degradation was shown in conventional AID systems.

[6] = target: T7, SMC2, CTCF and POLR2A to which mAID is added (Oryza sativa subsp. japonica, UniProt Q7XVM8, F74G); assay: Degradation of mAID fused SMC2, CTCF and POLR2A in HCT116 constitutively expressing OsTIR1(F74G); assay type: cell-based, human; details: 1 μM
T7 construct: expressed in transfected cells; host or cells: HCT116 constitutively expressing OsTIR1(F74G); endogenous genes tagged
Excerpt: Regarding aSMC2 condensin complex, a CTCF insulator protein or the maximum subunit of RNA polymerase 2 (POLR2A) in which it was difficult to produce an AID cell line using an HCT116 cell constantly expressing OsTIR1(WT), whether or not a cell line can be generated with a cell constitutively expressing OsTIR1(F74G) was examined.

[7] = target: T8, OsTIR1(WT)/mAID-EGFP-NLS expressing cell (Oryza sativa subsp. japonica, UniProt Q7XVM8); assay: FACS analysis of mAID-EGFP-NLS reporter degradation in OsTIR1(WT) expressing HCT116 cell (conventional system); assay type: cell-based, human
T8 construct: expressed in transfected cells; host or cells: HCT116 (human colon adenocarcinoma-derived cell)
Procedure: as §1, §2, §3, §4, §5
In order to investigate dynamics over time attributed to the removal of a target protein, samples after a lapse of time were taken, and the expression levels of the reporter were observed (refer to FIG. 10(B)).

[8] = target: T9, RAD21-mAID-Clover (RAD21-mAC) cell expressing OsTIR1(WT) (Oryza sativa subsp. japonica, UniProt Q7XVM8); assay: RAD21-mAC degradation in HCT116 cell expressing OsTIR1(WT); assay type: cell-based, human; details: after the addition of a ligand
T9 construct: expressed in transfected cells; host or cells: RAD21-mAC cell expressing OsTIR1(WT) (HCT116 implied)
T9 sequence (Q7XVM8 1-575): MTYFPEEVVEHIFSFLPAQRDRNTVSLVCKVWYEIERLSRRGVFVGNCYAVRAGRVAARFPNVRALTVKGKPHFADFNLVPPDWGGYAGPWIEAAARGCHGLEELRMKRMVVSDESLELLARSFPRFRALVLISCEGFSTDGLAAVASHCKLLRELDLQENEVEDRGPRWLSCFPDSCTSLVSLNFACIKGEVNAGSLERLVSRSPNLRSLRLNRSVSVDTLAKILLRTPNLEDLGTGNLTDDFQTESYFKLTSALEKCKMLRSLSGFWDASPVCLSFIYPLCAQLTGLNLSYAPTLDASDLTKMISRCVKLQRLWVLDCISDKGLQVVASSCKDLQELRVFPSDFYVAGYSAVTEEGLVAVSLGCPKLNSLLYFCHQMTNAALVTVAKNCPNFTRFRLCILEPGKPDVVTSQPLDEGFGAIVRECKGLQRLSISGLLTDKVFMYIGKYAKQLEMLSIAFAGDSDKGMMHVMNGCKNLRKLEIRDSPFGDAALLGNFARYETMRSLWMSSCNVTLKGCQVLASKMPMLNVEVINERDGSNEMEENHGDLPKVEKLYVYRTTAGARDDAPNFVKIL
Procedure: as §9

## O=C(O)Cc1c[nH]c2ccc(-c3ccccc3)cc12 [5-Ph-IAA, 5-phenyl-indole 3-acetic acid]
[1]; 1 nM and 10 nM, compared with the other auxin analogs
  effect of inducing the degradation of the mAID-EGFP-NLS reporter: stronger effect
[1]; 1 μM, four hours
  degradation of mAID-EGFP-NLS reporter: efficiently degraded
[1]; AID2 system, OsTIR1(F74G)
  half-life of reporter degradation: 62.3 ± 2.0 min
[1]; DC50 OsTIR1(WT)/IAA versus OsTIR1(F74G)/5-Ph-IAA
  times lower concentration compared with conventional auxin-inducible degron systems: approximately 670 times
[1]; OsTIR1(F74G) clones compared with OsTIR1(F74A) clone
  degradation of mAID-EGFP-NLS reporter in clones: sharper degradation
[1]; OsTIR1(F74G), after degradation induction
  recovery of reporter expression after exchange to culture medium containing no 5-Ph-IAA: fully recovered after three hours
[1]; read-out: DC 50 values (concentrations for 50% degradation), mAID-EGFP-NLS reporter, OsTIR1(F74G), HCT116
  DC50: 0.45 ± 0.01 nM
[2]
  degradation of mAID-EGFP-NLS reporter in clones: degradation was induced
HCT116 cell
  colony formation efficiency: no change
  influence on the cell cycle: no influence
  toxicity: no toxicity
[3]; 1 μM
  cell cycle phenotype after DHC1-mAC degradation: arrested in mitosis
  mitotic spindle formation after DHC1-mAC degradation: strong defect in mitotic spindle formation
[3]; 1 μM, clone with tags at both alleles
  degradation of DHC1-mAC: more efficiently degraded
[3]; after 24 hours
  cell phenotype after DHC1 degradation: accumulation of cells in the mitotic period was observed
  degradation of DHC1-mAID-Clover fused protein (microscopy): degraded a DHC1-mAID-Clover fused protein
[3]; clones #1 to #3
  degradation of DHC1 by Western blotting: degradation of DHC1 and mAID was confirmed
mAID-EGFP-CENPH
  degradation of mAID-EGFP-CENPH by Western blotting: degradation of mAID-EGFP-CENPH was confirmed
mAID-EGFP-POLD1
  degradation of mAID-EGFP-POLD1 by Western blotting: degradation of mAID-EGFP-POLD1 was confirmed
[4]; plates containing 5 μM, OsTIR1(F74G or F74A)
  growth of mAID-introduced yeast strains: strong growth inhibition
[5]
  cell cycle of RAD21-mAC degraded cells: arrested in the G2/M phase
  sister chromatid cohesion of RAD21-mAC degraded cell: profound defect
[5]; after the addition of a ligand
  T1/2 of RAD21-mAC: 11.7 min
[6]
  degradation of mAID fused targets (SMC2, CTCF, POLR2A): rapidly degraded

## O=C(O)Cc1c[nH]c2ccccc12 [IAA]
[7]; 100 μM, four hours
  degradation of mAID-EGFP-NLS reporter: the reporter was degraded
[7]; conventional system, OsTIR1(WT)
  half-life of reporter degradation: 147.1 ± 12.5 min
[7]; mAID-EGFP-NLS reporter, OsTIR1(WT), HCT116, read-out: DC 50 values (concentrations for 50% degradation)
  DC50: 300 ± 30 nM
[4]; 500 μM, OsTIR1(WT and F74A)
  growth of mAID-introduced yeast strains: growth suppression
[8]
  T1/2 of RAD21-mAC: 26.5 min
